Results on 54 compounds are retold here after patent publication US11292791B2 (priority 2017, dated 2022).

Molecules are shown by their SMILES.

The test concerns the target BRD4 (Homo sapiens (Human), UniProt O60885). The following applies: read-out: BRD4 IC50 (μM gmean).
The IC50 is the concentration that gives 50% inhibition. For `COC(=O)N1c2ccc3c(nc(C[C@@H](C)c4ccccc4)n3C)c2CC[C@@H]1C` [Example 1, methyl (S)-3,7-dimethyl-2-((R)-2-phenylpropyl)-3,7,8,9-tetrahydro-6H-imidazo[4,5-f]quinoline-6-carboxylate], the IC50 lay in the range of 1 to 1000 µM.
To `COC(=O)N1c2ccc3c(nc(C[C@H](C)c4ccccc4)n3C)c2CC[C@@H]1C` [Example 2, methyl (S)-3,7-dimethyl-2-((S)-2-phenylpropyl)-3,7,8,9-tetrahydro-6H-imidazo[4,5-f]quinoline-6-carboxylate] belongs 1 to 1000 µM; to `COC(=O)N1c2ccc3[nH]c(CCc4ccccc4)nc3c2CC[C@@H]1C` [Example 7, methyl (S)-7-methyl-2-phenethyl-3,7,8,9-tetrahydro-6H-imidazo[4,5-f]quinoline-6-carboxylate], 1 to 1000 µM; to `COC(=O)N1c2ccc3[nH]c(Cc4ccccc4)nc3c2CC[C@@H]1C` [Example 9], 1 to 1000 µM.
Take `COC(=O)N1c2ccc3c(nc(CCc4ccccc4)n3C)c2CC[C@@H]1C` [Example 10]: the IC50 is 1 to 1000 µM.
To `COC(=O)N1c2ccc3c(nc(CCn4cccn4)n3C)c2CC[C@@H]1C` [Example 11] belongs 1 to 1000 µM; to `COC(=O)N1c2ccc3[nH]c(CCc4ccccn4)nc3c2CC[C@@H]1C` [Example 12], 1 to 1000 µM.
For the compound `COC(=O)N1c2ccc3c(nc(CCc4cccnc4)n3C)c2CC[C@@H]1C` [Example 13], the half-maximal inhibitory concentration (IC50) lay in the range of 1 to 1000 µM.
Regarding `COC(=O)N1c2ccc3c(nc(CCc4ccncc4)n3C)c2CC[C@@H]1C` [Example 14], the concentration for half-maximal inhibition (IC50) is 1 to 1000 µM.
Regarding `COC(=O)N1c2ccc3c(nc(CCn4ccccc4=O)n3C)c2CC[C@@H]1C` [Example 15], the half-inhibitory concentration (IC50) was 1 to 1000 µM.
Consider `COC(=O)N1c2ccc3c(nc(Cc4ccccc4)n3[C@H]3C[C@@H](C(=O)O)C3)c2CC[C@@H]1C` [Example 20], for which the concentration for half-maximal inhibition (IC50) lay in the range of 1 to 1000 µM.
On to `COC(=O)N1c2ccc3c(nc(Cc4ccccc4)n3[C@H]3C[C@H](C(=O)O)C3)c2CC[C@@H]1C` [Example 21], for which the IC50 is 1 to 1000 µM.
With `COC(=O)N1c2ccc3c(nc(Cc4ccccc4)n3C34CCC(C(=O)O)(CC3)C4)c2CC[C@@H]1C` [Example 24], the IC50 lay in the range of 1 to 1000 µM.
For the compound `COC(=O)N1c2ccc3c(nc(Cc4ccccc4)n3[C@H]3CC[C@](C)(C(=O)O)CC3)c2CC[C@@H]1C` [Example 25], the half-maximal inhibitory concentration (IC50) was in the range of 1 to 1000 µM.
For the compound `COC(=O)N1c2ccc3c(nc(Cc4ccccc4)n3[C@H]3CC[C@@](C)(C(=O)O)CC3)c2CC[C@@H]1C` [Example 26], the concentration for half-maximal inhibition (IC50) was 1 to 1000 µM.
In the case of `COC(=O)N1c2ccc3c(nc(Cc4ccc(OC)cc4)n3[C@H]3CC[C@H](C(=O)O)CC3)c2CC[C@@H]1C` [Example 27], the concentration for half-maximal inhibition (IC50) is 1 to 1000 µM.
Take `COC(=O)N1c2ccc3c(nc(Cc4ccc(OC)c(F)c4)n3[C@H]3CC[C@H](C(=O)O)CC3)c2CC[C@@H]1C` [Example 28]: the IC50 was 1 to 1000 µM.
The result for `COC(=O)N1c2ccc3c(nc(CCn4cccn4)n3[C@H]3CC[C@H](C(=O)O)CC3)c2CC[C@@H]1C` [Example 31] reads 1 to 1000 µM.
For the compound `COC(=O)N1c2ccc3c(nc(CCn4nccn4)n3[C@H]3CC[C@H](C(=O)O)CC3)c2CC[C@@H]1C` [Example 32], the IC50 lay within 1 to 1000 µM.
In the case of `COC(=O)N1c2ccc3c(nc(CCc4cnc(C)o4)n3[C@H]3CC[C@H](C(=O)O)CC3)c2CC[C@@H]1C` [Example 33], the IC50 fell in the range of 1 to 1000 µM.
To `COC(=O)N1c2ccc3c(nc(CCc4cnn(C)c4)n3[C@H]3CC[C@H](C(=O)O)CC3)c2CC[C@@H]1C` [Example 34] belongs 1 to 1000 µM.
To `COC(=O)N1c2ccc3c(nc(CCc4ncc(C)o4)n3[C@H]3CC[C@H](C(=O)O)CC3)c2CC[C@@H]1C` [Example 35] belongs 1 to 1000 µM.
Take `COC(=O)N1c2ccc3c(nc(CCc4nc(C)co4)n3[C@H]3CC[C@H](C(=O)O)CC3)c2CC[C@@H]1C` [Example 36]: the IC50 lay within 1 to 1000 µM.
As for `COC(=O)N1c2ccc3c(nc(CCc4cc(C)no4)n3[C@H]3CC[C@H](C(=O)O)CC3)c2CC[C@@H]1C` [Example 37], the 50% inhibitory concentration (IC50) fell in the range of 1 to 1000 µM.
Consider `COC(=O)N1c2ccc3c(nc(CCc4nnc(C)o4)n3[C@H]3CC[C@H](C(=O)O)CC3)c2CC[C@@H]1C` [Example 38], for which the 50% inhibitory concentration (IC50) was 1 to 1000 µM.
As for `COC(=O)N1c2ccc3c(nc(CCn4ccc(C)n4)n3[C@H]3CC[C@H](C(=O)O)CC3)c2CC[C@@H]1C` [Example 39], the IC50 lay in the range of 1 to 1000 µM.
To `COC(=O)N1c2ccc3c(nc(CCn4cc(Cl)cn4)n3[C@H]3CC[C@H](C(=O)O)CC3)c2CC[C@@H]1C` [Example 41] belongs 1 to 1000 µM; to `COC(=O)N1c2ccc3c(nc(CCc4nc(C)no4)n3[C@H]3CC[C@H](C(=O)O)CC3)c2CC[C@@H]1C` [Example 42], 1 to 1000 µM; to `COC(=O)N1c2ccc3c(nc(Cc4ccccc4)n3-c3ccc(C(=O)O)cc3)c2CC[C@@H]1C` [Example 43], 1 to 1000 µM.
Consider `COC(=O)N1c2ccc3c(nc(Cc4ccccc4)n3-c3cccc(C(=O)O)c3)c2CC[C@@H]1C` [Example 44], for which the half-maximal inhibitory concentration (IC50) lay in the range of 1 to 1000 µM.
With `COC(=O)N1c2ccc3c(nc(CCc4ccn(C)n4)n3[C@H]3CC[C@H](C(=O)O)CC3)c2CC[C@@H]1C` [Example 45], the IC50 was 1 to 1000 µM.
`COC(=O)N1c2ccc3c(nc([C@H](CO)c4ccccc4)n3C3CCOCC3)c2CC[C@@H]1C` [Example 46, methyl (7S)-2-[(1R)-2-hydroxy-1-phenylethyl]-7-methyl-3-(oxan-4-yl)-3H,6H,7H,8H,9H-imidazo[4,5-f]quinoline-6-carboxylate]: the half-inhibitory concentration (IC50) lay in the range of 1 to 1000 µM.
The result for `COC(=O)N1c2ccc3c(nc([C@@H](CO)c4ccccc4)n3C3CCOCC3)c2CC[C@@H]1C` [Example 47, methyl (7S)-2-[(1S)-2-hydroxy-1-phenylethyl]-7-methyl-3-(oxan-4-yl)-3H,6H,7H,8H,9H-imidazo[4,5-f]quinoline-6-carboxylate] reads 1 to 1000 µM; that for `COC(=O)N1c2ccc3c(nc([C@H](C)c4ccccc4)n3[C@H]3CC[C@H](C(=O)O)CC3)c2CC[C@@H]1C` [Example 56, trans-4-[(7S)-6-(methoxycarbonyl)-7-methyl-2-[(1R)-1-phenylethyl]-3H,6H,7H,8H,9H-imidazo[4,5-f]quinolin-3-yl]cyclohexane-1-carboxylic Acid], 1 to 1000 µM.
Take `COC(=O)N1c2ccc3c(nc([C@@H](C)c4ccccc4)n3[C@H]3CC[C@H](C(=O)O)CC3)c2CC[C@@H]1C` [Example 57, trans-4-[(7S)-6-(methoxycarbonyl)-7-methyl-2-[(1S)-1-phenylethyl]-3H,6H,7H,8H,9H-imidazo[4,5-f]quinolin-3-yl]cyclohexane-1-carboxylic Acid]: the IC50 fell in the range of 1 to 1000 µM.
Consider `COC(=O)N1c2ccc3c(nc([C@H](C)c4ccccc4)n3C3CCNCC3)c2CC[C@@H]1C` [Example 58, methyl (S)-7-methyl-2-((R)-1-phenylethyl)-3-(piperidin-4-yl)-3,7,8,9-tetrahydro-6H-imidazo[4,5-f]quinoline-6-carboxylate], for which the IC50 is 1 to 1000 µM.
To `COC(=O)N1c2ccc3c(nc([C@@H](C)c4ccccc4)n3C3CCNCC3)c2CC[C@@H]1C` [Example 59, methyl (S)-7-methyl-2-((S)-1-phenylethyl)-3-(piperidin-4-yl)-3,7,8,9-tetrahydro-6H-imidazo[4,5-f]quinoline-6-carboxylate] belongs 1 to 1000 µM; to `COC(=O)N1c2ccc3c(nc(Cc4ccccc4)n3[C@@H]3CC[C@@H](CO)OC3)c2CC[C@@H]1C` [Example 66, methyl (S)-2-benzyl-3-((3R,6S)-6-(hydroxymethyl)tetrahydro-2H-pyran-3-yl)-7-methyl-3,7,8,9-tetrahydro-6H-imidazo[4,5-f]quinoline-6-carboxylate], 1 to 1000 µM.
As to `COC(=O)N1c2ccc3c(nc(Cn4ccccc4=O)n3[C@H]3CC[C@H](O)CC3)c2CC[C@@H]1C` [Example 71], the concentration for half-maximal inhibition (IC50) lay in the range of 1 to 1000 µM.
Consider `COC(=O)N1c2ccc3c(nc(Cc4ccccc4)n3[C@@H]3CC[C@@H](C(=O)O)OC3)c2CC[C@@H]1C` [Example 72, (2S,5R)-5-((S)-2-benzyl-6-(methoxycarbonyl)-7-methyl-6,7,8,9-tetrahydro-3H-imidazo[4,5-f]quinolin-3-yl)tetrahydro-2H-pyran-2-carboxylic Acid], for which the 50% inhibitory concentration (IC50) was 1 to 1000 µM.
To `COC(=O)N1c2ccc3c(nc(CCc4ccccc4)n3C3CC4(CNC4)C3)c2CC[C@@H]1C` [Example 81] belongs 1 to 1000 µM.
For the compound `COC(=O)N1c2ccc3c(nc(Cc4ccccc4)n3C3CC4CCC(C3)N4)c2CC[C@@H]1C` (stereo partly drawn) [Example 83], the IC50 was 1 to 1000 µM.
`COC(=O)N1c2ccc3c(nc(Cc4ccccc4)n3C[C@@H]3CCCNC3)c2CC[C@@H]1C` [Example 86]: the half-maximal inhibitory concentration (IC50) lay within 1 to 1000 µM.
The result for `COC(=O)N1c2ccc3c(nc(Cc4ccccc4)n3C[C@H]3CCCNC3)c2CC[C@@H]1C` [Example 87] reads 1 to 1000 µM; that for `COC(=O)N1c2ccc3c(nc(Cc4ccccc4)n3C3CCNCC3)c2CC[C@@H]1C` [Example 90], 1 to 1000 µM; that for `COC(=O)N1c2ccc3c(nc(Cc4ccccc4)n3CC3CCNCC3)c2CC[C@@H]1C` [Example 93], 1 to 1000 µM.
With `COC(=O)N1c2ccc3c(nc(Cc4ccccc4)n3C3CC4(CNC4)C3)c2CC[C@@H]1C` [Example 94], the IC50 is 1 to 1000 µM.
For `COC(=O)N1c2ccc3c(nc(Cc4ccccc4)n3C3CC4(CCNCC4)C3)c2CC[C@@H]1C` [Example 95], the IC50 lay within 1 to 1000 µM.
As to `COC(=O)N1c2ccc3c(nc(Cc4ccccc4)n3C3CCC4(CC3)CNC4)c2CC[C@@H]1C` [Example 96], the 50% inhibitory concentration (IC50) was in the range of 1 to 1000 µM.
Take `COC(=O)N1c2ccc3c(nc(Cc4ccccc4)n3CC3CNC3)c2CC[C@@H]1C` [Example 97]: the IC50 was 1 to 1000 µM.
On to `COC(=O)N1c2ccc3c(nc(Cc4ccccc4)n3C3CC4CNCC4C3)c2CC[C@@H]1C` (stereo partly drawn) [Example 98], for which the IC50 lay within 1 to 1000 µM.
On to `COC(=O)N1c2ccc3c(nc(Cc4cccc(OC(C)C)c4)n3C3CC4(CNC4)C3)c2CC[C@@H]1C` [Example 99], for which the IC50 fell in the range of 1 to 1000 µM.
Regarding `COC(=O)N1c2ccc3c(nc(CCc4cccc(OC)c4)n3C3CC4(CNC4)C3)c2CC[C@@H]1C` [Example 100], the concentration for half-maximal inhibition (IC50) fell in the range of 1 to 1000 µM.
The result for `COC(=O)N1c2ccc3c(nc(CCc4cccc(OC(C)C)c4)n3C3CC4(CNC4)C3)c2CC[C@@H]1C` [Example 101] reads 1 to 1000 µM.
